Experimental data published in patent USRE40086E1, “Method for treating bacterial infection with novel 7-substituted-9-substituted amino 6-demethyl-6-deoxytetracyclines” (Wyeth Holdings Corporation, priority 1991, dated 2008).

What was measured:
[1] = system: X. maltophilia NEMC 87210; experiment: MIC, agar dilution (Table IA); assay type: cell-based; conditions: unit assumed
E. coli J3272 TetC = experiment: MIC, agar dilution (Table IA); assay type: cell-based; conditions: unit assumed
E. coli UBMS 89-1 (tetM) = experiment: MIC, agar dilution; assay type: cell-based; conditions: E. coli UBMS 89-1 TetM; Table IA; unit assumed
[2] = system: E. coli UBMS 89-2 (Sensitive); experiment: MIC, agar dilution; assay type: cell-based; conditions: E. coli UBMS 89-2 Tet Sens.; Table IA; unit assumed
[3] = system: S. aureus Smith (Sensitive); experiment: MIC, agar dilution; assay type: cell-based; conditions: S. aureus SMITH (MP); Table IA; unit assumed
E. coli PRP1 TetA = experiment: MIC, agar dilution (Table IA); assay type: cell-based; conditions: unit assumed
S. aureus ROSE (MP) = experiment: MIC, agar dilution (Table IA); assay type: cell-based; conditions: unit assumed
[4] = system: S. aureus IVES 2943 (meth. resistant); experiment: MIC, agar dilution; assay type: cell-based; conditions: S. aureus IVES 2943; Table IA; unit assumed
[5] = system: S. aureus UBMS 88-4 (Sensitive); experiment: MIC, agar dilution; assay type: cell-based; conditions: S. aureus UBMS 88-4; Table IA; unit assumed
[6] = system: S. haemolyticus AVAH 88-3; experiment: MIC, agar dilution; assay type: cell-based; conditions: S. hemolyticus AVHAH 88-3; Table IA; unit assumed
E. coli #311 (MP) = experiment: MIC, agar dilution (Table IA); assay type: cell-based; conditions: unit assumed
E. coli J3272 TetD = experiment: MIC, agar dilution (Table IA); assay type: cell-based; conditions: unit assumed
E. faecalis ATCC 29212 = experiment: MIC, agar dilution; assay type: cell-based; conditions: E. faecalis ATCC 29212; Table IA; unit assumed
[7] = system: S. aureus UBMS 90-3 (Sensitive); experiment: MIC, agar dilution; assay type: cell-based; conditions: S. aureus UBMS 90-3; Table IA; unit assumed
E. coli MC4100 TetB = experiment: MIC, agar dilution (Table IA); assay type: cell-based; conditions: unit assumed
E. coli J2175 = experiment: MIC, agar dilution (Table IA); assay type: cell-based; conditions: unit assumed
E. coli UBMS 90-4 (tetM) = experiment: MIC, agar dilution; assay type: cell-based; conditions: E. coli UBMS 90-4 TetM; Table IA; unit assumed
S. mariescens FDOR 8733 = experiment: MIC, agar dilution (Table IA); assay type: cell-based; conditions: unit assumed
E. coli UBMS 90-5 = experiment: MIC, agar dilution (Table IA); assay type: cell-based; conditions: unit assumed
[8] = system: S. aureus UBMS 88-7 (tetK); experiment: MIC, agar dilution; assay type: cell-based; conditions: S. aureus UBMS 88-7 TetK; Table IA; unit assumed
S. aureus NEMC 8769/89-4 = experiment: MIC, agar dilution (Table IA); assay type: cell-based; conditions: unit assumed
[9] = system: S. aureus UBMS 90-1 (tetM); experiment: MIC, agar dilution; assay type: cell-based; conditions: S. aureus UBMS 90-1 TetM; Table IA; unit assumed
E. coli J3272 Tet sens. = experiment: MIC, agar dilution (Table IA); assay type: cell-based; conditions: unit assumed
[10] = system: Ps. acruginosa ATCC 27853; experiment: MIC, agar dilution (Table IA); assay type: cell-based; conditions: unit assumed
[11] = system: S. aureus ATCC 29213 (Sensitive); experiment: MIC, agar dilution; assay type: cell-based; conditions: S. aureus ATCC 29213; Table IA; unit assumed
E. faecalis 12201 = experiment: MIC, agar dilution; assay type: cell-based; conditions: Enterococcus 12201; Table IA; unit assumed
[12] = system: S. aureus UBMS 88-5 (tetM); experiment: MIC, agar dilution; assay type: cell-based; conditions: S. aureus UBMS 88-5 TetM; Table IA; unit assumed
E. coli ATCC 25922 = experiment: MIC, agar dilution; assay type: cell-based; conditions: E. coli ATCC 25922; Table IA; unit assumed
[13] = system: S. aureus UBMS 90-2 (tetM); experiment: MIC, agar dilution; assay type: cell-based; conditions: S. aureus UBMS 90-2 TetM; Table IA; unit assumed
[14] = system: S. aureus IVES 1983 (meth. resistant); experiment: MIC, agar dilution; assay type: cell-based; conditions: S. aureus IVES 1983; Table IA; unit assumed
E. coli BAJ9003 = experiment: MIC, agar dilution (Table IA); assay type: cell-based; conditions: unit assumed
E. coli UBMS 88-1 (tetB) = experiment: MIC, agar dilution; assay type: cell-based; conditions: E. coli UBMS 88-1 TetB; Table IA; unit assumed
[15] = system: TetM S30 extract, derivative of E. coli MRE600 containing the tetM determinant; experiment: E. coli in vitro transcription and protein translation, 35S-methionine incorporation (Table VIII)
[16] = system: Wild Type S30 extract, E. coli strain MRE600 (tetracycline sensitive); experiment: as above

Row | Compound | Antibacterial activity (MIC) [1] [mg/L] | Antibacterial activity (MIC) (E. coli J3272 TetC) [mg/L] | Antibacterial activity (MIC) (E. coli UBMS 89-1 (tetM)) [mg/L] | Antibacterial activity (MIC) [2] [mg/L] | Antibacterial activity (MIC) [3] [mg/L] | Antibacterial activity (MIC) (E. coli PRP1 TetA) [mg/L] | Antibacterial activity (MIC) (S. aureus ROSE (MP)) [mg/L] | Antibacterial activity (MIC) [4] [mg/L] | Antibacterial activity (MIC) [5] [mg/L] | Antibacterial activity (MIC) [6] [mg/L] | Antibacterial activity (MIC) (E. coli #311 (MP)) [mg/L] | Antibacterial activity (MIC) (E. coli J3272 TetD) [mg/L] | Antibacterial activity (MIC) (E. faecalis ATCC 29212) [mg/L] | Antibacterial activity (MIC) [7] [mg/L] | Antibacterial activity (MIC) (E. coli MC4100 TetB) [mg/L] | Antibacterial activity (MIC) (E. coli J2175) [mg/L] | Antibacterial activity (MIC) (S. mariescens FDOR 8733) [mg/L] | Antibacterial activity (MIC) (E. coli UBMS 90-5) [mg/L] | Antibacterial activity (MIC) [8] [mg/L] | Antibacterial activity (MIC) (S. aureus NEMC 8769/89-4) [mg/L] | other results
1 | CN(C)c1cc(NC(=O)CN2CCC2)c(O)c2c1CC1CC3C(N(C)C)C(O)=C(C(N)=O)C(=O)C3(O)C(O)=C1C2=O (stereo not drawn) [LLL, (7S-(7alpha,10aalpha)]-N-[9-(Aminocarbonyl)-4,7-bis(dimethylamino)-5,5a,6,6a,7,10,10a,12-octahydro-1,8,10a,11-tetrahydroxy-10,12-dioxo-2-naphthacenyl]-1-azetidineacetamide] | 1 | 0.5 | 0.25 | 0.5 | 0.25 | 1 | 2 | 2 | 0.25 | 0.25 | 0.25 | 0.12 | 0.25 | 0.12 | 0.5 | 0.25 | 2 | 0.25 | 2 | 0.12 | Antibacterial activity (MIC) (E. coli UBMS 90-4 (tetM)): 0.25 mg/L; Antibacterial activity (MIC) [9]: 0.25 mg/L; Antibacterial activity (MIC) (E. coli J3272 Tet sens.): 0.25 mg/L; Antibacterial activity (MIC) [10]: 8 mg/L; Antibacterial activity (MIC) [11]: 0.25 mg/L; Antibacterial activity (MIC) (E. faecalis 12201): 0.25 mg/L; Antibacterial activity (MIC) [12]: 0.25 mg/L; Antibacterial activity (MIC) (E. coli ATCC 25922): 0.25 mg/L; Antibacterial activity (MIC) [13]: 0.25 mg/L; Antibacterial activity (MIC) [14]: 2 mg/L; Antibacterial activity (MIC) (E. coli BAJ9003): 0.06 mg/L; Antibacterial activity (MIC) (E. coli UBMS 88-1 (tetB)): 0.5 mg/L
2 | CNCC(=O)Nc1cc(N(C)C)c2c(c1O)C(=O)C1=C(O)[C@]3(O)C(=O)C(C(N)=O)=C(O)[C@@H](N(C)C)C3CC1C2.Cl.Cl (stereo partly drawn) [MM, [4S-(4alpha,12aalpha)]-4,7-Bis(dimethylamino)-1,4,4a,5,5a,6,11,12a-octahydro-3,10,12,12a-tetrahydroxy-9-[[(methylamino)acetyl]amino]-1,11-dioxo-2-naphthacenecarboxamide dihydrochloride] | 8 | 8 | 1 | 1 | 0.5 | 16 | 32 | 32 | 0.5 | 1 | 1 | 0.05 | 0.25 | 0.5 | 1 | 1 | 16 | 1 | 16 | 0.5 | % INHIBITION TetM S30 ([15]; 0.06 mg/ml): 92%; % INHIBITION TetM S30 ([15]; 0.2 mg/ml): 97%; % INHIBITION TetM S30 ([15]; 1.0 mg/ml): 99%; Antibacterial activity (MIC) [9]: 1 mg/L; Antibacterial activity (MIC) (E. coli J3272 Tet sens.): 1 mg/L; Antibacterial activity (MIC) [10]: 16 mg/L; Antibacterial activity (MIC) [11]: 1 mg/L; Antibacterial activity (MIC) (E. faecalis 12201): 0.25 mg/L; Antibacterial activity (MIC) [12]: 0.5 mg/L; Antibacterial activity (MIC) (E. coli ATCC 25922): 1 mg/L; Antibacterial activity (MIC) [13]: 0.5 mg/L; Antibacterial activity (MIC) [14]: 16 mg/L; Antibacterial activity (MIC) (E. coli BAJ9003): 0.25 mg/L; % INHIBITION Wild Type S30 ([16]; 0.06 mg/ml): 95%; % INHIBITION Wild Type S30 ([16]; 0.2 mg/ml): 98%; % INHIBITION Wild Type S30 ([16]; 1.0 mg/ml): 99%; Antibacterial activity (MIC) (E. coli UBMS 88-1 (tetB)): 1 mg/L
3 | CN(C)c1cc(NC(=O)CNC2CCC2)c(O)c2c1CC1CC3C(N(C)C)C(O)=C(C(N)=O)C(=O)C3(O)C(O)=C1C2=O (stereo not drawn) [MMM, [4S-(4alpha,12aalpha)]-g-[[(Cyclobutylamino)acetyl]amino]-4,7-Bis(dimethylamino)-1,4,4a,5,5a,6,11,12a-octahydro-3,10,12,12a-tetrahydroxy-1,11-dioxo-2-naphthacenecarboxamide] | 0.5 | 0.5 | 0.25 | 0.5 | 0.25 | 4 | 8 | 4 | 0.25 | 0.24 | 0.25 | 0.12 | 0.25 | 0.12 | 0.25 | 0.25 | 8 | 0.5 | 4 | 0.5 | Antibacterial activity (MIC) (E. coli UBMS 90-4 (tetM)): 0.25 mg/L; Antibacterial activity (MIC) [9]: 0.5 mg/L; Antibacterial activity (MIC) (E. coli J3272 Tet sens.): 0.06 mg/L; Antibacterial activity (MIC) [10]: 32 mg/L; Antibacterial activity (MIC) [11]: 0.25 mg/L; Antibacterial activity (MIC) (E. faecalis 12201): 0.24 mg/L; Antibacterial activity (MIC) [12]: 0.25 mg/L; Antibacterial activity (MIC) (E. coli ATCC 25922): 0.25 mg/L; Antibacterial activity (MIC) [13]: 0.25 mg/L; Antibacterial activity (MIC) [14]: 4 mg/L; Antibacterial activity (MIC) (E. coli BAJ9003): 0.03 mg/L; Antibacterial activity (MIC) (E. coli UBMS 88-1 (tetB)): 0.5 mg/L
4 | CN(C)c1cc(NC(=O)CN2CCCCC2)c(O)c2c1CC1CC3C(N(C)C)C(O)=C(C(N)=O)C(=O)C3(O)C(O)=C1C2=O.Cl.Cl (stereo not drawn) [UU, [7S-(7alpha,10aalpha)]-N-[9-(Aminocarbonyl)-4,7-bis(dimethylamino)-5,5a,6,6a,7,10,10a,12-octahydro-1,8,10a,11-tetrahydroxy-10,12-dioxo-2-naphthacenyl)-1-piperidineacetamide dihydrochloride] | 0.12 | 0.5 | 0.12 | 0.5 | 0.12 | 1 | 0.5 | 0.25 | 0.25 | 0.12 | 0.25 | 0.25 | 0.06 | 0.12 | 0.5 | 0.5 | 4 | 0.5 | 0.25 | 0.06 | Antibacterial activity (MIC) (E. coli UBMS 90-4 (tetM)): 0.5 mg/L; Antibacterial activity (MIC) [9]: 0.25 mg/L; Antibacterial activity (MIC) (E. coli J3272 Tet sens.): 0.5 mg/L; Antibacterial activity (MIC) [10]: 32 mg/L; Antibacterial activity (MIC) [11]: 0.12 mg/L; Antibacterial activity (MIC) (E. faecalis 12201): 0.12 mg/L; Antibacterial activity (MIC) [12]: 0.25 mg/L; Antibacterial activity (MIC) (E. coli ATCC 25922): 0.25 mg/L; Antibacterial activity (MIC) [13]: 0.12 mg/L; Antibacterial activity (MIC) [14]: 0.5 mg/L; Antibacterial activity (MIC) (E. coli BAJ9003): 0.06 mg/L; Antibacterial activity (MIC) (E. coli UBMS 88-1 (tetB)): 0.5 mg/L
